Experimental data as given in PubChem BioAssay AID248 (DTP/NCI, 2004).
Values joined by “and” are separate entries in the source; they are usually repeats but may differ in a detail not shown here. Identical values can stand only once. Inconclusive results and toxic doses are left out. Rule as the data show it: active = T/C of 150% or more; inactive = T/C below 125%.

Test system: L1210 leukemia ip in BDF1 mice, survival T/C
Assay: NCI In Vivo Anticancer Drug Screen. Data for tumor model L1210 Leukemia (intraperitoneal) in B6D2F1 (BDF1) mice
Settings: endpoint: mean survival time, higher = longer survival
Summary of the method: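 Transplanted-tumor mice were given test agent; controls received vehicle only. Survival readings from the two groups were divided (treated over control).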

[1] = dose: 100.0 mg/kg/injection, schedule: Q01DX009 (ip), vehicle: Klucel (hydroxypropylcellulose) (HPC)
[2] = dose: 200.0 mg/kg/injection, schedule: Q01DX009 (ip), vehicle: Klucel (hydroxypropylcellulose) (HPC)
[3] = dose: 400.0 mg/kg/injection, schedule: Q01DX009 (ip), vehicle: Klucel (hydroxypropylcellulose) (HPC)
[4] = dose: 100.0 mg/kg/injection, schedule: Q01DX001 (ip), vehicle: saline
[5] = dose: 200.0 mg/kg/injection, schedule: Q01DX001 (ip), vehicle: saline
[6] = dose: 400.0 mg/kg/injection, schedule: Q01DX001 (ip), vehicle: saline
[7] = dose: 100.0 mg/kg/injection, schedule: Q04DX003 (ip), vehicle: Klucel (hydroxypropylcellulose) (HPC)
[8] = dose: 200.0 mg/kg/injection, schedule: Q04DX003 (ip), vehicle: Klucel (hydroxypropylcellulose) (HPC)
[9] = dose: 400.0 mg/kg/injection, schedule: Q04DX003 (ip), vehicle: Klucel (hydroxypropylcellulose) (HPC)
[10] = dose: 100.0 mg/kg/injection, schedule: Q01DX001 (ip), vehicle: other
[11] = dose: 200.0 mg/kg/injection, schedule: Q01DX001 (ip), vehicle: other
[12] = dose: 400.0 mg/kg/injection, schedule: Q01DX001 (ip), vehicle: other
[13] = dose: 100.0 mg/kg/injection, schedule: Q04DX002 (ip), vehicle: Klucel (hydroxypropylcellulose) (HPC)
[14] = dose: 200.0 mg/kg/injection, schedule: Q04DX002 (ip), vehicle: Klucel (hydroxypropylcellulose) (HPC)
[15] = dose: 100.0 mg/kg/injection, schedule: Q04DX003 (ip), vehicle: saline with Tween-80
[16] = dose: 200.0 mg/kg/injection, schedule: Q04DX003 (ip), vehicle: saline with Tween-80
[17] = dose: 400.0 mg/kg/injection, schedule: Q04DX003 (ip), vehicle: saline with Tween-80
[18] = dose: 100.0 mg/kg/injection, schedule: Q04DX003 (ip), vehicle: saline
[19] = dose: 200.0 mg/kg/injection, schedule: Q04DX003 (ip), vehicle: saline
[20] = dose: 400.0 mg/kg/injection, schedule: Q04DX002 (ip), vehicle: Klucel (hydroxypropylcellulose) (HPC)
[21] = dose: 100.0 mg/kg/injection, schedule: Q01DX009 (ip), vehicle: saline with Tween-80
[22] = dose: 200.0 mg/kg/injection, schedule: Q01DX009 (ip), vehicle: saline with Tween-80
[23] = dose: 400.0 mg/kg/injection, schedule: Q01DX009 (ip), vehicle: saline with Tween-80

Measured: T/C

COc1cccc(C(Cc2ccccc2)NCc2ccccc2)c1 (stereo not drawn)
inactive: [1] 91 % of control | [2] 91 % of control | [3] 96 % of control

CCCCNC(=O)Nc1cccc(C(F)(F)F)c1
inactive: dose: 50.0 mg/kg/injection, schedule: Q01DX001 (sc), vehicle: carboxymethylcellulose (CMC) 106 % of control | dose: 100.0 mg/kg/injection, schedule: Q01DX001 (sc), vehicle: carboxymethylcellulose (CMC) 104 % of control | dose: 200.0 mg/kg/injection, schedule: Q01DX001 (sc), vehicle: carboxymethylcellulose (CMC) 104 % of control | dose: 400.0 mg/kg/injection, schedule: Q01DX001 (sc), vehicle: carboxymethylcellulose (CMC) 101 % of control

CN(C)P1(=O)N(C)CCN1C
inactive: [4] 100 % of control | [5] 98 % of control | [6] 94 % of control

CCCCCCCCCCP(=O)(CCCC)CCCC
inactive: dose: 1.56 mg/kg/injection, schedule: Q01DX009 (ip), vehicle: Klucel (hydroxypropylcellulose) (HPC) 92 % of control | dose: 3.12 mg/kg/injection, schedule: Q01DX009 (ip), vehicle: Klucel (hydroxypropylcellulose) (HPC) 95 % of control | dose: 6.25 mg/kg/injection, schedule: Q01DX009 (ip), vehicle: Klucel (hydroxypropylcellulose) (HPC) 97 % of control | dose: 12.5 mg/kg/injection, schedule: Q01DX009 (ip), vehicle: Klucel (hydroxypropylcellulose) (HPC) 95 % of control | [1] 100 % of control

O=C1/C(=C/c2ccc(O)c(O)c2)Cc2ccccc21
inactive: [7] 117 % of control | [8] 105 % of control | [9] 104 % of control

Cc1cc(C)c[n+](Cc2ccccc2Cl)c1
inactive: dose: 12.5 mg/kg/injection, schedule: Q01DX001 (ip), vehicle: saline 102 % of control | dose: 25.0 mg/kg/injection, schedule: Q01DX001 (ip), vehicle: saline 96 % of control

O=C(/C(=N/O)c1ccccc1)c1ccccc1
inactive: dose: 50.0 mg/kg/injection, schedule: Q01DX001 (ip), vehicle: other 103 % of control | [10] 97 % of control | [11] 105 % of control | [12] 100 % of control

Cn1nccc2c(=O)n(C)c(=O)nc1-2
inactive: [13] 97 % of control | [14] 95 % of control

Cc1cc(=O)[nH]c(N)n1
inactive: [7] 114 % of control | [15] 98 % of control | [8] 101 % of control | [16] 98 % of control | [9] 93 % of control | [17] 96 % of control

B1CCN1
inactive: dose: 9.5 mg/kg/injection, schedule: Q01DX001 (ip), vehicle: saline 94 % of control | dose: 19.0 mg/kg/injection, schedule: Q01DX001 (ip), vehicle: saline 103 % of control

COC(=O)N1CC=CCN1C(=O)OC
inactive: [18] 94 % of control | [19] 116 % of control | dose: 400.0 mg/kg/injection, schedule: Q04DX003 (ip), vehicle: saline 115 % of control

O=C1/C(=C/c2ccc(Br)cc2)Cc2ccccc21
inactive: dose: 100.0 mg/kg/injection, schedule: Q04DX002 (ip), vehicle: saline with Tween-80 94 % of control | dose: 200.0 mg/kg/injection, schedule: Q04DX002 (ip), vehicle: saline with Tween-80 90 % of control | dose: 400.0 mg/kg/injection, schedule: Q04DX002 (ip), vehicle: saline with Tween-80 90 % of control

O=C(Nc1ccccc1Cl)N(C1CCCCC1)C1CCCCC1
inactive: [13] 103 % of control | [14] 100 % of control | [20] 106 % of control

c1ccc(C2(N3CCC4(CC3)OCCO4)CCCCC2)cc1
inactive: [13] 102 % of control | [14] 105 % of control

ClC1(Cl)c2ccccc2-c2ccccc21
inactive: [4] 103 % of control | [5] 113 % of control | [6] 110 % of control

C#CCNCc1ccccc1
inactive: dose: 50.0 mg/kg/injection, schedule: Q01DX009 (ip), vehicle: saline with Tween-80 101 % of control and 92 % of control | [4] 100 % of control | [21] 101 % of control and 106 % of control | dose: 100.0 mg/kg/injection, schedule: Q04DX002 (ip), vehicle: saline 94 % of control and 96 % of control and 108 % of control | [18] 98 % of control | [5] 96 % of control | dose: 200.0 mg/kg/injection, schedule: Q04DX002 (ip), vehicle: saline 101 % of control (2×) and 112 % of control | [19] 101 % of control | [6] 98 % of control

O=Cc1cn[nH]c1-c1ccccc1
inactive: [1] 97 % of control | [7] 95 % of control | [2] 97 % of control | [8] 98 % of control | [3] 106 % of control | [9] 98 % of control

O=[N+]([O-])c1ccc(N2CCCCC2)nc1
inactive: dose: 50.0 mg/kg/injection, schedule: Q01DX001 (ip), vehicle: carboxymethylcellulose (CMC) 115 % of control | dose: 100.0 mg/kg/injection, schedule: Q01DX001 (ip), vehicle: carboxymethylcellulose (CMC) 91 % of control | dose: 200.0 mg/kg/injection, schedule: Q01DX001 (ip), vehicle: carboxymethylcellulose (CMC) 115 % of control | dose: 400.0 mg/kg/injection, schedule: Q01DX001 (ip), vehicle: carboxymethylcellulose (CMC) 97 % of control

O=[N+]([O-])/C(Br)=C\c1ccc([N+](=O)[O-])cc1
inactive: dose: 75.0 mg/kg/injection, schedule: Q01DX001 (ip), vehicle: carboxymethylcellulose (CMC) 98 % of control | dose: 150.0 mg/kg/injection, schedule: Q01DX001 (ip), vehicle: carboxymethylcellulose (CMC) 105 % of control

Cc1c(C)c(Br)c(C)c(-c2c(O)c(Br)c(-c3c(C)c(C)c(C)c(Br)c3C)c(O)c2Br)c1C
inactive: [15] 97 % of control | [16] 90 % of control

O=C(Oc1c(Cl)cc(Cl)cc1Cl)c1ccccc1
inactive: [1] 93 % of control | [21] 90 % of control | [7] 93 % of control | [15] 98 % of control | [2] 96 % of control | [22] 91 % of control | [8] 96 % of control | [16] 98 % of control | [3] 98 % of control | [23] 106 % of control | [9] 98 % of control | [17] 96 % of control

CCOC(=O)CCc1c(C(=O)OCC)[nH]c(C)c1CC(=O)OC
inactive: [7] 98 % of control | [8] 101 % of control | [9] 101 % of control

CN(C)c1ccc(/C=C/c2nc3ccc(Cl)cc3[nH]2)cc1
inactive: [7] 96 % of control | [8] 103 % of control | [9] 96 % of control

Cc1[nH]c(=O)[nH]c(=O)c1CCS
inactive: [4] 94 % of control | [5] 95 % of control | [6] 101 % of control

NC(=O)c1c(F)c(F)c(N)c(F)c1F
inactive: [13] 96 % of control | [14] 93 % of control | [20] 118 % of control

O=C(Nc1ccc([N+](=O)[O-])cc1Cl)Oc1ccc(F)cc1
inactive: [7] 95 % of control | [8] 96 % of control | [9] 100 % of control

O=C(OCCCCCCOC(=O)c1cccc([N+](=O)[O-])c1)c1cccc([N+](=O)[O-])c1
inactive: [10] 93 % of control | [11] 93 % of control | [12] 101 % of control

Nc1ccc(N=Nc2ccc(S(=O)(=O)O)cc2)cc1
inactive: [21] 87 % of control | [22] 95 % of control | [23] 97 % of control

CCCCCCCCC1=C(CCCCCCC(=O)OC)[14CH2]1
inactive: dose: 75.0 mg/kg/injection, schedule: Q04DX003 (ip), vehicle: saline 100 % of control | dose: 150.0 mg/kg/injection, schedule: Q04DX003 (ip), vehicle: saline 93 % of control | dose: 300.0 mg/kg/injection, schedule: Q04DX003 (ip), vehicle: saline 90 % of control

CCCCC(C)C1(C)C(=O)NC(=O)NC1=O (stereo not drawn)
inactive: dose: 75.0 mg/kg/injection, schedule: Q01DX001 (ip), vehicle: saline 105 % of control | dose: 150.0 mg/kg/injection, schedule: Q01DX001 (ip), vehicle: saline 103 % of control | dose: 300.0 mg/kg/injection, schedule: Q01DX001 (ip), vehicle: saline 105 % of control

C=C(C)C1CCCC(Cc2cccc3c(Cl)cccc23)C1 (stereo not drawn)
inactive: dose: 100.0 mg/kg/injection, schedule: Q01DX001 (ip), vehicle: gum acacia 97 % of control | dose: 200.0 mg/kg/injection, schedule: Q01DX001 (ip), vehicle: gum acacia 94 % of control | dose: 400.0 mg/kg/injection, schedule: Q01DX001 (ip), vehicle: gum acacia 99 % of control
